Test results published in patent publication US20250134890A1, “ANTIMALARIAL HEXAHYDROPYRIMIDINE ANALOGUES” (UCB BIOPHARMA SRL, priority 2022, published 2025).
Where a name gives a salt, the structure may show the parent alone.

tested on: Plasmodium falciparum: 3D7 strain; assay: P. falciparum 3D7 asexual blood stage assay (SYBR green readout); assay type: cell-based; settings: Plasmodium falciparum, 3D7, Erythrocyte, 72 h, P. falciparum 3D7 in human erythrocytes, 72 h incubation, SYBR green fluorescence
Summary of the method: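 3D7-infected erythrocytes (5% haematocrit, 0.5% parasitaemia) were exposed 72 h at 37 °C under 1% O2/3% CO2 to a 20-point titration (50,000-15 nM final, 0.5% DMSO). Parasite DNA was read by SYBR green fluorescence after overnight lysis. Percent inhibition was set against mefloquine and DMSO, and EC50 came from a biphasic two-site fit.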

| Compound | IC50 [nM] |
| --- | --- |
| C[C@H]1C[C@@H](N2C(=N)N[C@](C)(c3cccc(-c4cn(-c5ccncc5)nn4)c3Cl)CC2=O)CCO1 [Example 119, (6S)-6-{2-Chloro-3-[1-(pyridin-4-yl)-1,2,3-triazol-4-yl]phenyl}-2-imino-6-methyl-3-[(2S,4S)-2-methyltetrahydropyran-4-yl]-hexahydropyrimidin-4-one trifluoroacetic acid salt] | 296 |
| C[C@H]1C[C@@H](N2C(=N)N[C@](C)(c3cccc(-c4cn(Cc5ccncc5)nn4)c3Cl)CC2=O)CCO1 [Example 120, (6S)-6-{2-Chloro-3-[1-(pyridin-4-ylmethyl)-1,2,3-triazol-4-yl]-phenyl}-2-imino-6-methyl-3-[(2S,4S)-2-methyltetrahydropyran-4-yl]hexahydropyrimidin-4-one trifluoroacetic acid salt] | 507 |
| C=C(c1ccccc1)n1cc(-c2cccc([C@]3(C)CC(=O)N([C@H]4CCO[C@@H](C)C4)C(=N)N3)c2Cl)nn1 [Example 121, (6S)-6-{2-Chloro-3-[1-(1-phenyl-vinyl)-1,2,3-triazol-4-yl]phenyl}-2-imino-6-methyl-3-[(2S,4S)-2-methyltetrahydropyran-4-yl]-hexahydropyrimidin-4-one trifluoroacetic acid salt] | 185 |
| C[C@H]1C[C@@H](N2C(=N)N[C@](C)(c3cccc(-c4cn(C5CCC5)nn4)c3Cl)CC2=O)CCO1 [Example 122, (6S)-6-[2-Chloro-3-(1-cyclobutyl-1,2,3-triazol-4-yl)phenyl]-2-imino-6-methyl-3-[(2S,4S)-2-methyl-tetrahydropyran-4-yl]hexahydro-pyrimidin-4-one trifluoroacetic acid salt] | 101 |
| COCCn1cc(-c2cccc([C@]3(C)CC(=O)N([C@H]4CCO[C@@H](C)C4)C(=N)N3)c2Cl)nn1 [Example 123, (6S)-6-{2-Chloro-3-[1-(2-methoxy-ethyl)-1,2,3-triazol-4-yl]phenyl}-2-imino-6-methyl-3-[(2S,4S)-2-methyltetrahydropyran-4-yl]-hexahydropyrimidin-4-one trifluoroacetic acid salt] | 542 |
| C[C@H]1C[C@@H](N2C(=N)N[C@](C)(c3cccc(-c4cn(Cc5ccccc5)nn4)c3Cl)CC2=O)CCO1 [Example 124, (6S)-6-[3-(1-Benzyl-1,2,3-triazol-4-yl)-2-chlorophenyl]-2-imino-6-methyl-3-[(2S,4S)-2-methyl-tetrahydropyran-4-yl]hexahydro-pyrimidin-4-one trifluoroacetic acid salt] | 216 |
| CC(n1cc(-c2cccc([C@]3(C)CC(=O)N([C@H]4CCO[C@@H](C)C4)C(=N)N3)c2Cl)nn1)C12CC(CO1)C2 (stereo partly drawn) [Example 125, (6S)-6-(2-Chloro-3-{1-[1-(2-oxa-bicyclo[2.1.1]hexan-1-yl)ethyl]-1,2,3-triazol-4-yl}phenyl)-2-imino-6-methyl-3-[(2S,4S)-2-methyl-tetrahydropyran-4-yl]hexahydro-pyrimidin-4-one trifluoroacetic acid salt] | 220 |
| C[C@H]1C[C@@H](N2C(=N)N[C@](C)(c3cccc(-c4cn(-c5ccccc5)nn4)c3Cl)CC2=O)CCO1 [Example 126, (6S)-6-[2-Chloro-3-(1-phenyl-1,2,3-triazol-4-yl)phenyl]-2-imino-6-methyl-3-[(2S,4S)-2-methyl-tetrahydropyran-4-yl]hexahydro-pyrimidin-4-one trifluoroacetic acid salt] | 5 |
| CCCCn1cc(-c2cccc([C@]3(C)CC(=O)N([C@H]4CCO[C@@H](C)C4)C(=N)N3)c2Cl)nn1 [Example 127, (6S)-6-[3-(1-Butyl-1,2,3-triazol-4-yl)-2-chlorophenyl]-2-imino-6-methyl-3-[(2S,4S)-2-methyl-tetrahydropyran-4-yl]hexahydro-pyrimidin-4-one trifluoroacetic acid salt] | 100 |
| C[C@H](c1cccnc1)n1cc(-c2cccc([C@]3(C)CC(=O)N([C@H]4CCO[C@@H](C)C4)C(=N)N3)c2Cl)nn1 [Example 128, (6S)-6-(2-Chloro-3-{1-[(1R)-1-(pyridin-3-yl)ethyl]-1,2,3-triazol-4-yl}phenyl)-2-imino-6-methyl-3-[(2S,4S)-2-methyltetrahydropyran-4-yl]hexahydropyrimidin-4-one trifluoroacetic acid salt] | 112 |
| C[C@H]1C[C@@H](N2C(=N)N[C@](C)(c3cccc(-c4cn(C5CCCNCC5)nn4)c3Cl)CC2=O)CCO1 (stereo partly drawn) [Example 129, (6S)-6-{3-[1-(Azepan-4-yl)-1,2,3-triazol-4-yl]-2-chlorophenyl}-2-imino-6-methyl-3-[(2S,4S)-2-methyltetrahydropyran-4-yl]-hexahydropyrimidin-4-one trifluoroacetic acid salt] | 11900 |
